Experimental data reported in patent publication EP4745134A1 (Jiangsu Yahong Meditech Co., Ltd., priority 2023, dated 2025).

Experiments:
[1] = system: HCT116 MTAP KO cells; assay: Inhibitory activity against cell proliferation (CellTiter Glo, 6 days), HCT116 MTAP KO; type: cell-based; conditions: for IC50: Homo sapiens, HCT-116, 144 h, HCT116 MTAP KO cells, 6 days, CellTiter Glo, read-out: HCT116 MTAP KO IC50; for Selectivity HCT 116-WT/ HCT116 MTAP KO: ratio of IC50 HCT116-WT / HCT116 MTAP KO
In short: (§1)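 250 cells/well, McCoy's 5A + 10% FBS, o/n 37°C 5% CO2; cpd 8-pt 4-fold from 10000 nM, 6 d; CTG lum on day 7; IC50 vs DMSO.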

[2] = target: PRMT5-MTA (Homo sapiens, UniProt O14744); assay: Enzymatic inhibitory activity against PRMT5-MTA (AlphaScreen); type: biochemical; conditions: read-out: IC50
Chain of PRMT5-MTA (O14744 whole entry): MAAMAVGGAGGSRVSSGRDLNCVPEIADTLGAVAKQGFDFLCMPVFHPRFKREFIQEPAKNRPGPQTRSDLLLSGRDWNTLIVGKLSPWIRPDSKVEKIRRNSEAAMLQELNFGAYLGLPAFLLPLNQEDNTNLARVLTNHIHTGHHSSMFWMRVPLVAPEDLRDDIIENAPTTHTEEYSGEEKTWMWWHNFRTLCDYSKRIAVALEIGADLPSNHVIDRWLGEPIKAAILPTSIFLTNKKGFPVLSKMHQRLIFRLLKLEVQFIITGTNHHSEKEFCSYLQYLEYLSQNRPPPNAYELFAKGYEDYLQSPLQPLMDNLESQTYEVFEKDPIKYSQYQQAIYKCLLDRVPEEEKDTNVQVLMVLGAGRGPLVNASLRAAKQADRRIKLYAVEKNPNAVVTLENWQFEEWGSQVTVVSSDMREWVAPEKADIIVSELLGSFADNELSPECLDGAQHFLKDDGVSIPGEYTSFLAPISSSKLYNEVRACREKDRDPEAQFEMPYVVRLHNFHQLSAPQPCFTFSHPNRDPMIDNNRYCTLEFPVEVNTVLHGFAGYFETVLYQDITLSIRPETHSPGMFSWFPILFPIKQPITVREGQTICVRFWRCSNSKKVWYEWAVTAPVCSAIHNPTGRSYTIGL
Chain of PRMT5-MTA (Q9BQA1 whole entry partner): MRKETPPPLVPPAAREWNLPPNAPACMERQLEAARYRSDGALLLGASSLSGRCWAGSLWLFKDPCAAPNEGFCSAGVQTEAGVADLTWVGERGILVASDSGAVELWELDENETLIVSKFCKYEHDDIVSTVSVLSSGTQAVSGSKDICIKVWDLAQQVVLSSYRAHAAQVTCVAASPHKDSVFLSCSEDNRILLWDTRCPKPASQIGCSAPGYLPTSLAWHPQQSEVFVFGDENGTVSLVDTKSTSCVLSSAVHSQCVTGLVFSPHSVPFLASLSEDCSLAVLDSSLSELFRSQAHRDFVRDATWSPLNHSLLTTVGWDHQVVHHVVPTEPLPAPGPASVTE
In short: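 PRMT5/[…] (1 nM) was preincubated for 30 min at room temperature with 1 µM […] and 2.5 µM SAM, then exposed to compound (10-point, 3-fold from 1000 nM) for 15 min at 23 °C. Histone H4 substrate (5 nM) was added and reacted for 45 min at 23 °C. Symmetric dimethyl-R3 H4 was detected by AlphaScreen and IC50 calculated.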

[3] = system: HCT116-WT cells; assay: Inhibitory activity against cell proliferation (CellTiter Glo, 6 days), HCT116-WT; type: cell-based; conditions: 144 h, HCT116-WT cells, 6 days, CellTiter Glo; read-out: HCT116-WT IC50
In short: as §1

In the case of Cc1cc2cc(C(=O)N(Cc3ccc(C(F)(F)F)cn3)N(C)c3ncccc3OC(F)F)ccc2nc1N [Example 93, 2-amino-N'-(3-(difluoromethoxy)pyridin-2-yl)-N',3-dimethyl-N-((5-(trifluoromethyl)pyridin-2-yl)methyl)quinoline-6-carbohydrazide], the IC50 [1] is reported as 20 nM, the “Selectivity HCT 116-WT/ HCT116 MTAP KO” value [1] is reported as 30.60 and the IC50 [2] is reported as 1.4 nM. It also gave an IC50 [3] of 612 nM.

For COC1CN(C(=O)c2cc3c(cc2Cl)nc(N)c2cnn(C)c23)N(c2cccc(F)c2F)C1 (stereo not shown) [Example 447, (4-amino-7-chloro-1-methyl-1H-pyrazolo [4,3-c]quinolin-8-yl)(2-(2,3-difluorophenyl)-4-methoxypyrazolidin-1-yl)methanone], the IC50 [1] was 24 nM, the “Selectivity HCT 116-WT/ HCT116 MTAP KO” value [1] was 13.13 and the IC50 [2] was 6.8 nM. For the same molecule, the IC50 [3] was 315 nM.

For Cn1ncc2c(N)nc3cc(Cl)c(C(=O)N4CC(F)(F)CN4c4ccccc4F)cc3c21 [Example 457, (4-amino-7-chloro-1-methyl-1H-pyrazolo [4,3-c]quinolin-8-yl)(4,4-difluoro-2-(2-fluorophenyl)pyrazolidin-1-yl)methanone], the IC50 [1] was 12 nM, the “Selectivity HCT 116-WT/ HCT116 MTAP KO” value [1] was 10.25 and the IC50 [2] was 7.5 nM. For the same molecule, the IC50 [3] was 123 nM.

In the case of Cc1cc2cc(C(=O)N(Cc3ccc(C(F)(F)F)cn3)N(c3ncccn3)C3CCC3)ccc2nc1N [Example 83, 2-amino-N'-cyclobutyl-3-methyl-N'-(pyrimidin-2-yl)-N-((5-(trifluoromethyl)pyridin-2-yl)methyl)quinoline-6-carbohydrazide], the IC50 [1] is reported as 134 nM, the “Selectivity HCT 116-WT/ HCT116 MTAP KO” value [1] is reported as 14.39 and the IC50 [2] is reported as 4.5 nM. For the same molecule, the IC50 [3] was 1930 nM.

In the case of COC1CN(C(=O)c2cc3c(cc2C)nc(N)c2cnn(C)c23)N(c2cccc(F)n2)C1 (stereo not shown) [Example 449, (4-amino-1,7-dimethyl-1H-pyrazolo[4,3-c]quinolin-8-yl)(2-(6-fluoropyridin-2-yl) -4-methoxypyrazolidin-1-yl)methanone], the IC50 [1] is reported as 63 nM, the “Selectivity HCT 116-WT/ HCT116 MTAP KO” value [1] is reported as 23.37 and the IC50 [2] is reported as 5.2 nM. It also gave an IC50 [3] of 1470 nM.

Cc1cc2nc(N)c3cnn(C)c3c2cc1C(=O)N1CC(C)(C)CN1c1ncccc1F [Example 330, (4-amino-1,7-dimethyl-1H-pyrazolo[4,3-c]quinolin-8-yl)(2-(3-fluoropyridin-2-yl)-4,4-dimethylpyrazolidin-1-yl)methanone] was tested, and the IC50 [1] was 24 nM, the “Selectivity HCT 116-WT/ HCT116 MTAP KO” value [1] was 25.13 and the IC50 [2] was 13 nM. For the same molecule, the IC50 [3] was 603 nM.

For COc1ccc(-c2ccc(CN(C(=O)c3ccc4nc(N)c(C)cc4c3)N(C)c3ncccn3)nc2)cn1 [Example 174, 2-amino-N-((6'-methoxy-[3,3'-bipyridine] -6-yl)methyl)-N',3-dimethyl-N'-(pyrimidin-2-yl)quinoline-6-carbohydrazide], the IC50 [1] was 41 nM, the “Selectivity HCT 116-WT/ HCT116 MTAP KO” value [1] was 26.22 and the IC50 [2] was 2.3 nM. It also gave an IC50 [3] of 1080 nM.

For Cc1ncc(-c2cnc(N3CC(C)CN3C(=O)c3cc4c(cc3C)nc(N)c3cnn(C)c34)c(F)c2)s1 (stereo not shown) [Example 476, (4-amino-1,7-dimethyl-1H-pyrazolo[4,3-c]quinolin-8-yl)(2-(3-fluoro-5-(2-methylthiazol-5-yl)pyridin-2-yl)-4-methylpyrazolidin-1-yl)methanone], the IC50 [1] was 28 nM, the “Selectivity HCT 116-WT/ HCT116 MTAP KO” value [1] was 33.64 and the IC50 [2] was 5.6 nM. The IC50 [3] was 942 nM.

With Cc1cc2cc(C(=O)N(Cc3ccc(N4CCC(F)(F)C4)cn3)N(C)c3ncccn3)ccc2nc1N [Example 224, 2-amino-N-((5-(3,3-difluoropyrrolidin-1-yl)pyridin-2-yl)methyl)-N',3-dimethyl-N'-(pyrimidin-2-yl)quinoline-6-carbohydrazide] the IC50 [1] was 470 nM, the IC50 [2] was 16 nM and the IC50 [3] was > 10000 nM.

Cc1cc2cc(C(=O)N(Cc3ncc(-c4cccnc4)cc3F)N(C)c3ncccn3)ccc2nc1N [Example 222, 2-amino-N-((5-fluoro-[3,3'-bipyridine]-6-yl)methyl)-N',3-dimethyl-N'-(pyrimidin-2-yl)quinoline-6-carbohydrazide] was tested, and the IC50 [1] was 20 nM, the “Selectivity HCT 116-WT/ HCT116 MTAP KO” value [1] was 16.40 and the IC50 [2] was 1.4 nM. It also gave an IC50 [3] of 328 nM.

In the case of Cc1cc2nc(N)c3cnn(C)c3c2cc1C(=O)N1CC(C)CN1c1ccc(OC(F)(F)F)cn1 (stereo not shown) [Example 384, (4-amino-1,7-dimethyl-1H-pyrazolo[4,3-c]quinolin-8-yl)(4-methyl-2-(5-(trifluoromethoxy)pyridin-2-yl)pyrazolidin-1-yl)m ethanone], the IC50 [1] is reported as 238 nM, the “Selectivity HCT 116-WT/ HCT116 MTAP KO” value [1] is reported as 14.35 and the IC50 [2] is reported as 4.1 nM. It also gave an IC50 [3] of 3420 nM.

Cc1cc2nc(N)c3cnn(C)c3c2cc1C(=O)N1CC(C)(F)CN1c1ncccc1F (stereo not shown) [Example 422, (4-amino-1,7-dimethyl-1H-pyrazolo[4,3-c]quinolin-8-yl)(4-fluoro-2-(3-fluoropyridin-2-yl)-4-methylpyrazolidin-1-yl)metha none] was tested, and the IC50 [1] was 21 nM, the “Selectivity HCT 116-WT/ HCT116 MTAP KO” value [1] was 38.38 and the IC50 [2] was 9.3 nM. The IC50 [3] was 806 nM.

For [2H]c1nc(C)c(-c2ccc(CN(C(=O)c3ccc4nc(N)c(C)cc4c3)N(c3ncccn3)C3CC3)nc2)s1 [Example 238, 2-amino-N'-cyclopropyl-3-methyl-N-((5-(4-methylthiazol-5-yl-2d)pyridin-2-yl)methyl)-N'-(pyrimidin-2-yl)quinoline-6-carbohydrazide], the IC50 [1] was 5.1 nM, the “Selectivity HCT 116-WT/ HCT116 MTAP KO” value [1] was 21.96 and the IC50 [2] was 5.7 nM. For the same molecule, the IC50 [3] was 112 nM.

With Cc1ncc(-c2cnc(N3CC(C)CN3C(=O)c3cc4c(cc3C)nc(N)c3cnn(C)c34)c(F)c2)cn1 (stereo not shown) [Example 477, (4-amino-1,7-dimethyl-1H-pyrazolo[4,3-c]quinolin-8-yl)(2-(3-fluoro-5-(2-methylpyrimidin-5-yl)pyridin-2-yl)-4-methylpyrazolidin-1-yl)methanone] the IC50 [1] was 28 nM, the “Selectivity HCT 116-WT/ HCT116 MTAP KO” value [1] was 52.00 and the IC50 [2] was 4.7 nM. It also gave an IC50 [3] of 1460 nM.

COC1CN(C(=O)c2cc3c(cc2Cl)nc(N)c2cnn(C)c23)N(c2ncc(Br)cc2F)C1 (stereo not shown) [Example 439, (4-amino-7-chloro-1-methyl-1H-pyrazolo [4,3-c]quinolin-8-yl)(2-(5-bromo-3-fluor opyridin-2-yl)-4-methoxypyrazolidin-1-yl)methanone] was tested, and the IC50 [1] was 37 nM, the “Selectivity HCT 116-WT/ HCT116 MTAP KO” value [1] was 19.86 and the IC50 [2] was 5.5 nM. The IC50 [3] was 735 nM.

In the case of COC1CN(C(=O)c2cc3c(cc2Cl)nc(N)c2cnn(C)c23)N(c2ncc(F)cc2F)C1 (stereo not shown) [Example 442, (4-amino-7-chloro-1-methyl-1H-pyrazolo [4,3-c]quinolin-8-yl)(2-(3,5-2 fluoropyridin-2-yl)-4-methoxypyrazolidin-1-yl)methanone], the IC50 [1] is reported as 42 nM, the “Selectivity HCT 116-WT/ HCT116 MTAP KO” value [1] is reported as 15.10 and the IC50 [2] is reported as 4.6 nM. It also gave an IC50 [3] of 634 nM.

With Cc1cc2cc(C(=O)N(Cc3ccc(-c4ccc(C#N)nc4)cn3)N(C)c3ncccn3)ccc2nc1N [Example 139, 2-amino-N-((6'-cyano-[3,3'-bipyridine]-6-yl)methyl)-N',3-dimethyl-N'-(pyrimidin-2-yl)quinoline-6-carbohydrazide] the IC50 [1] was 22 nM, the “Selectivity HCT 116-WT/ HCT116 MTAP KO” value [1] was 12.77 and the IC50 [2] was 3 nM. The IC50 [3] was 281 nM.
